Results published in patent publication US8287911B2, “Endotoxin adsorbent for the prevention and treatment of autoimmune diseases” (Chondrex Inc., priority 2006, dated 2012).
“And” between values parts separate entries of the source, which are not always exact repeats. Equal values may be shown once. Read-outs that look alike come from different tables or passages of the source.

What was measured:
[1] = Particle size distribution, microscopic method (Japanese Pharmacopoeia); assay type: physicochemical; conditions: for 50% Particle Size: resins of Examples 1-7 and reference, method of Example 9
Description: The particle size of the endotoxin-adsorbent was determined based on the particle size distribution method. The particle distribution analysis was performed according to “The method for determining particle size distribution. Method 1: Microscopic method” in the second supplement of the general test procedures, section 65, Japanese Pharmacopoeia, 13th Issue. The 50% particle size (μm) was explained as the diameter of particles of the corresponding values of the accumulative volume of particles is 50%.
The particle size distribution was measured according to “Measurement of Particle Size Distribution. Method 1: Microscopic method” in the second supplement of the general test procedures, Section 65, Japanese Pharmacopoeia, 13th Issue. The microscope and camera used for this experiment was Nikon ECLIPSE E600 and Victor KY-F55B, respectively. The collected data was analyzed using Nano Hunter NS2K-Pro. The 50% particle size of RPMB was 213 μm, and the content of small particles not more than 5 μm in a diameter was 0%.

[2] = assay type: binding, E. coli O-111; conditions: for LPS Activity Remaining, 10 mm / LPS Activity Remaining, 20 mm / LPS Activity Remaining, Before: 1 mL LPS 5 μg/mL; for LPS Activity Remaining, 10 mm / LPS Activity Remaining, 20 mm: 37° C.; for LPS Activity Remaining, 10 mm: 10 minutes after adding resin; for LPS Activity Remaining, 20 mm: 20 minutes after adding resin; for LPS Activity Remaining, Before: supernatant before adding resin (baseline)
Description: Endotoxin was assayed by an end point colorimetric assay method using Endospecy-ES24S kit (Seikagaku Kogyo, Japan). Lipopolysaccharide (LPS) from E. coli O-111 (Sigma L4130) was dissolved in pyrogen-free water at 5 μg/mL. One mL of this LPS solution was mixed with 50 μg and 100 μg of RPMB-1, and 100 μg of polymixin B-unconjugated resin (control) and incubated at 37° C. with stirring. Endotoxin levels were determined in the supernatant before, 10 and 20 minutes after adding the resins.

[3] = Endotoxin adsorption and elimination capacity (2), LPS-binding capacity from OD210 of supernatant; set-up: species or system E. coli O-111; conditions: for Endotoxin-Binding capacity (LP5 mg/g*): converted to dry weight of LPS per gram resin; for Endotoxin-Binding Capacity: per gram resin, method of Example 11
Description: The LPS binding capacity of the endotoxin-adsorbent in a test tube was determined according to the method described in “endotoxin test procedures” in Japanese Pharmacopoeia, in addition to a simple assay method of LPS by measuring OD values, which was developed during this invention. The experimental procedures and results are shown in EXAMPLE 10 and 11 in detail.
The endotoxin-binding capacity of polymixin B conjugates was also studied. LPS (Sigma L4130) was dissolved in pyrogen-free water at 0.2 mg/mL, and 4 mL of this solution was added to a test tube containing 20.6 mg of RPMB-1, and incubated at 37° C. with stirring. The supernatant was collected every 30 minutes by centrifugation and the OD values at 210 nm was determined. The OD210 value was dropped from 1 to 0.6 within the first 30 minutes of incubation and remained unchanged afterwards. […] Therefore, it was assumed that 20.6 mg of LPS adsorbent added in the first test tube was saturated with LPS. Accordingly, an LPS adsorption capacity of RPMB-1 was calculated based on the OD value changes of LPS solution. Since the LPS preparation used in this experiment was not pure and contaminated by DNA and proteins, it was assumed that the final OD value of 0.4 reflected the OD value of such contaminants. Based on this assumption, it was calculated that 1 g of RPMB is capable of binding approximately 25.9 mg of LPS (Sigma L4130) using the following formula: (0.8 mg×0.4/0.6)/0.0206=25.9 mg Since the endotoxin unit of this LPS preparation is 1.1×10^6 EU/mg, it was calculated that 1 g of RPMB-1 is capable of binding 29×10^6 EU of endotoxin.
Polymixin B-conjugated resins prepared in Examples 1-7 were analyzed for their particle size distribution by the method described in Example 9 and assayed for the endotoxin-binding capacity by the method described in Example 11 to study the relationship between particle size and LPS-binding capacity. AffiPrep poplymixin B (BioRad, USA) was used as a reference.
The endotoxin-binding capacity of individual batches of endotoxin-adsorbents prepared by conjugating with 3 million units of polymixin B was compared and expressed as endotoxin units (EU) per gram weight of resin as well as LPS weight per gram resin. The weight of LPS was obtained by converting the EU values based on the EU value per mg of LPS preparation (Sigma L4130, LPS preparation from E. coli O-111, B4, by trichloroacetic acid extraction) used for this experiment.

[4] = system: autoantibody mediated, LPS-induced arthritis; assay: Autoantibody mediated, LPS-induced arthritis model; assay type: in vivo, DBA/1JNCrj mice; conditions: experiment 1, day 7; for Severity of Arthritis (score): average of 5 mice, maximum 16 per mouse; for Incidence of Arthritis: mice with arthritis/5
From the text: The therapeutic effect of the endotoxin-adsorbent on autoimmune diseases can be determined in the mouse arthritis model as described in our previous invention, JP-A 2006-151914. Briefly, arthritis can be induced in 100% of mice by IP injection of enough amounts of anti-type II collagen monoclonal antibody cocktail (Chondrex Inc., Redmond, Wash., USA) within 3 days (Terato K et al. Induction of arthritis with monoclonal antibodies to collagen. J. Immunol. 148:2103-2108, 1992). By reducing the dose of the monoclonal antibody cocktail to 2 mg, all mice remained normal without developing arthritis. However, oral administration of 3 mg of LPS on 3 consecutive days from day 0, day 1, day 2 […] into these mice induced clinically apparent arthritis, which reached the peak on day 6-7. Furthermore, one group of mice was co-administered with indomethasin and ovoinhibitor, a protease-inhibitor purified from egg white. The combination of indomethasin and ovoinhibitor was used to increase the mucosal permeability of gastro-intestinal mucosa. In these mice, the effect of LPS was more significant, and more severe arthritis was induced by oral administration of a same dose of LPS. Using this arthritis model induced by a combination of monoclonal antibody and LPS, the therapeutic effect of the endotoxin-adsorbent can be determined. The benefit of this model is multifold: time of experimentation is short compared with an authentic collagen-induced arthritis model, the standard deviation of severity of arthritis among individual mice is much less, and the effect of the LPS-adsorbent is clearly determined.
DBA/1JNCrj mice (Japan Charles River) were divided into 5 groups (G1-G5, 5 mice per group). In order to increase the mucosal permeability, all mice received 40 μg of indomethasin (Sigma) and 2 mg of ovomucoid (Sigma) for 5 consecutive days from day −6 to −2 by the oral route. On day 0, all mice received an IV injection of 0.2 mL of arthritogenic monoclonal antibody cocktail (10 mg/mL). Endotoxin derived from E. coli O-111 (Phenol extracted LPS, Sigma) was dissolved in PBS at 7.5 mg/mL, and 0.2 mL of this solution was administered into G1-G4 mice by the oral route for 3 consecutive days from day 0 to 2. Endotoxin-adsorbent, RPMB-1, was suspended in distilled water at 100 mg/mL, and deaerated by a vacuum pump to keep the particles in uniform suspension by preventing the aggregation of the particles. The RPMB-1 suspension was administered to mice at doses of 0.125 mL (G2), 0.25 mL (G3) and 0.5 mL (G4) twice a day for 4 consecutive days from day 0 to 3 after LPS administration. G1 received 0.25 mL of water alone. Mice in G5, a positive control of arthritis, received IP injection of 0.1 mL of LPS solution (0.5 mg/mL in PBS) on day 3.
Severity of arthritis was scored by 5 grades, 0: normal without any swelling, 1: clinically apparent swelling of one digit, 2: moderate redness and swelling of more than 2 digits or moderate redness and swelling of the entire paw, 3: severe redness and swelling of the entire paws, and 4: maximum inflamed limb with involvement of multiple joints. The sum of the arthritis score (maximum 16 per mouse) of individual animals was calculated. The effect of the endotoxin-adsorbent was calculated based on the average score of 5 mice using the following equation: Suppression of arthritis(%)=(1−Average score of test group/Average score of control group)×100
Since the arthritis scores reached a maximum on day 7, the effect of the endotoxin-adsorbent was calculated using the scores on day 7. The suppression of arthritis by RPMB prepared in EXAMPLE 2 at 25 mg, 50 mg and 100 mg per mouse by oral administration is shown in Table 3.

[5] = system: autoantibody mediated, LPS-induced arthritis; assay: Autoantibody mediated, LPS-induced arthritis model; assay type: in vivo, DBA/1JNCrj mice; conditions: experiment 2; for Severity of Arthritis (score) / Incidence of Arthritis: 10 mg/mouse oral; for Severity of Arthritis (score): average of 5 mice, maximum 16 per mouse; for Incidence of Arthritis: mice with arthritis/5; for effect on development of arthritis (in words): dose of 10 mg per mouse

Row | Substance | 50% Particle Size [1] | Endotoxin-Binding capacity (LP5 mg/g*) [3] | Endotoxin-Binding Capacity [3] | Severity of Arthritis (score) [5] | Incidence of Arthritis [5] | effect on development of arthritis (in words) [5] | further results
1 | Epoxyacryl Resin-Polymixin B Conjugate [RPMB-1] | 32 μm | 26.5 mg/g | 29 × 10^6 EU/g | – | – | – | LPS Activity Remaining, 10 mm ([2]; resin amount 50 μg): 2403 EU/mL; LPS Activity Remaining, 20 mm ([2]; resin amount 50 μg): 1207 EU/mL; LPS Activity Remaining, Before ([2]; resin amount 50 μg): 5632 EU/mL; LPS Activity Remaining, 10 mm ([2]; resin amount 100 μg): 1004 EU/mL; LPS Activity Remaining, 20 mm ([2]; resin amount 100 μg): 170 EU/mL; LPS Activity Remaining, Before ([2]; resin amount 100 μg): 5526 EU/mL; LPS adsorption (in words) ([2]; versus polymixin B-unconjugated control resin): specifically adsorbed; OD value of supernatant after adding fresh resin ([3]; 20.5 mg fresh resin added to the supernatant, reduced from 0.6): 0.4; OD210 value of supernatant ([3]; 20.6 mg resin in 4 mL LPS 0.2 mg/mL, 37° C., within first 30 minutes, dropped from 1): 0.6; endotoxin bound by 1 g of resin ([3]; per 1 g resin, calculated with 1.1×10^6 EU/mg LPS): 29×10^6 EU; Severity of Arthritis (score) ([4]; 25 mg/mouse oral): 9 score and 6.4 ± 1.8 score; Incidence of Arthritis ([4]; 25 mg/mouse oral): 4 out of 5 and 4/5; Severity of Arthritis (score) ([4]; 50 mg/mouse oral): 2 score and 2 ± 2.8 score; Incidence of Arthritis ([4]; 50 mg/mouse oral): 2 out of 5 and 2/5; Severity of Arthritis (score) ([4]; 100 mg/mouse oral): 0 ± 0 score; Incidence of Arthritis ([4]; 100 mg/mouse oral): None of the five mice and 0/5
2 | Weakly Acidic Cation-Exchange Resin-Polymixin B Conjugate [1/300] | 400 μm | 6.7 mg/g | 7.7 × 10^6 EU/g | – | – | – | –
3 | Weakly Acidic Cation-Exchange Resin-Polymixin B Conjugate [4M/300] | 26 μm | 30 mg/g | 29.5 × 10^6 EU/g | 0.8 ± 1.8 score | 1/5 | suppressed the development of arthritis almost completely | –
4 | Weakly Acidic Cation-Exchange Resin-Polymixin B Conjugate [1M/300] | 29 μm | 120 mg/g | 136.3 × 10^6 EU/g | 0 ± 0 score | 0/5 | suppressed the development of arthritis almost completely | –
5 | Epoxyacryl Resin-Polymixin B Conjugate [RPMB] | 213 μm | 17.5 mg/g | 20 × 10^6 EU/g | – | – | – | Distribution of Particle Size: 10% Diameter ([1]; 1006 particles analyzed): 160 (μm); Distribution of Particle Size: 90% Diameter ([1]; 1006 particles analyzed): 266 (μm); Distribution of Particle Size: Average Diameter ([1]; 1006 particles analyzed): 197 (μm); content of small particles not more than 5 μm in a diameter ([1]; 1006 particles analyzed): 0%; LPS bound by 1 g of resin ([3]; per 1 g resin, calculated from OD value changes, (0.8 mg×0.4/0.6)/0.0206): approximately 25.9 mg
6 | Weakly Acidic Cation-Exchange Resin-Polymixin B Conjugate [4/300] | 400 μm | 6.3 mg/g | 7.2 × 10^6 EU/g | – | – | – | –
7 | Epoxyacryl Resin-Polymixin B Conjugate [RPMB-2] | 32 μm | 105 mg/g | 120 × 10^6 EU/g | 0 ± 0 score | 0/5 | suppressed the development of arthritis almost completely | –
